The source of these data is US20160120915A1, “METHODS FOR MANIPULATING IMMUNE RESPONSES BY ALTERING MICROBIOTA” (NEW YORK UNIVERSITY, priority 2013, published 2016).

Experiment [1] concerns NOD mice. In words: NOD PAT/STAT: type 1 diabetes incidence. Type of experiment: in vivo, NOD/ShiLTj mice. An excerpt: Pregnant NOD/ShiLTj mice were randomized into 3 groups: Control, STAT, and PAT. Control mice were maintained on non-acidified sterilized water. STAT pregnant dams were given low dose penicillin beginning late in pregnancy until pups were 12 weeks of age. PAT mice were given 3 therapeutic doses of tylosin starting on day 10 of life. At 6 weeks of age, 13 male (5 control, 3 STAT, 5 PAT) and 15 female (5 per group) NOD mice were sacrificed for immune-phenotyping by flow cytometry and ileal gene expression analysis by microarray and qPCR. From 10 weeks of age to 31 weeks of age, mice were tested for diabetes weekly by blood glucose measurement and urinary glucose detection. Onset of diabetes was defined as two consecutive weeks of blood glucose >250 mg/dl and glucosuria.
For the NOD experiments, dams (and their litters) were divided into control, STAT, and PAT groups (FIG. 33). The control mice were given non-acidified sterilized water throughout the experiments, and for the 2 antibiotic groups (STAT and PAT), the antibiotics were dissolved in non-acidified sterilized water. For STAT, subtherapeutic penicillin VK (1 mg/kg/day) was added to the drinking water in late pregnancy (so that the pups pass through an altered vaginal microbiota), and then continued until day 84 of life. […] Mice were monitored for diabetes onset by glucosuria and blood glucose, starting at 10 weeks of age. […]

Experiment [2] has as its system intestinal microbial community. In words: NOD: 16S rRNA V4 sequencing of fecal, cecal and ileal microbiota. The experiment is classed as in vivo, NOD mice. The following applies: for fecal microbial community structure (PCoA, unweighted unifrac): all time points. The procedure:
Fecal pellets were collected at least weekly from weaning at 3 weeks of age until the study termination at 31 weeks of age, and stored at −20° C. until processing. DNA was extracted from fecal pellets using the PowerLyzer™ PowerSoil® DNA Isolation Kit (MoBio, Carlsbad Calif.) and stored at −20° C. Cecal and ileal samples were collected upon necropsy at 6 weeks of age, upon diabetes development, or at the termination of the experiment at […] of age, and extracted using the PowerLyzer™ PowerSoil® DNA Isolation Kit.
Fecal samples collected at 3, 6, 10, and 13 weeks of age, and cecal and ileal samples collected at 6 weeks of age were used for sequencing. The V4 region of the 16S rRNA gene was amplified using universal primers 515 forward primer (5′ GTGCCAGCMGCCGCGGTAA 3′ SEQ ID NO: 54) and 806 reverse primer (5′ […] 3′ SEQ ID NO: 55) [Escherichia coli strain 83972 sequence (greengenes accession no. prokM-SA_id:470367] linked to a 12 base Goley barcode for multiplexing (Caporaso et al., The ISME Journal 2012; 6:1621-4. Caporaso et al., Proc. Natl. Acad. Sci. USA, 2011; 108 Suppl 1:4516-22). Sequencing was performed on the Miseq platform with a 15% PhiX spike.
The sequences were analyzed using the macqiime 1.7.0 software (Caporaso et al., Nature Methods 2010; 7:335-6). Sequences were aligned using the Ribosomal Database Project (RDP) classifier (Wang et al., Applied and Environmental Microbiology 2007; 73:5261-7). Taxonomy was assigned based on the GreenGenes May 2013. For alpha diversity measurements, observed number of species and phylogenic distance (PD) were calculated. For beta diversity measurements, unweighted unifrac distances were calculated (Lozupone C, Knight R., Applied and Environmental Microbiology 2005; 71:8228-35). The unweighted unifrac distances were used for principal coordinates analysis (PCoA), and visualized using the KiNG software. Further sequencing analysis and correlations were performed using the phyloseq and ellipse packages in R.

Experiment [3] relates to pancreatic islets. In words: NOD: pancreatic insulitis scoring in 6-week old mice. The experiment is classed as in vivo. The following applies: p<0.05. The procedure: Pancreata from 6-week-old control, STAT and PAT mice were fixed in modified Bouin's fixative (17 ml saturated aqueous picric acid, 1 ml glacial acetic acid, 2 ml 38-40% formalin) and paraffin embedded, cut, and stained with Aldehyde Fuchsin for insulitis scoring (Leiter, Curr Protoc Immunol. 2001; Chapter 15:Unit 15 9). Five sections were made for each pancreas. Each of the sections is 5 microns thick with a 70 microns gap between sections. Insulitis was scored on a scale of 0-4: 0, normal islet; 1, peri-insular leukocyte aggregates; 2, leukocyte infiltration <25%; 3, leukocyte infiltration >25%, but <75%; 4, leukocyte infiltration >75% and β-cell destruction. For each mouse, an insulitis score was calculated based on the following formula: (total score for all islets)/(4×number of islets examined) (Forestier et al., Journal of immunology. 2007; 178, 1415). […] The most severely affected islet was scored from each section. Insulitis was scored on a scale of 0-4: 0, normal islet; 1, peri-insular leukocyte aggregates; 2, leukocyte infiltration <25%; 3, leukocyte infiltration >25%, but <75%; 4, leukocyte infiltration >75% and β-cell destruction, according to standard criteria. For the females, we scored at least 24 islets per group (5 mice per group). […] For the males, 25 islets were scored for the control and PAT group (5 mice per group), and 15 islets from the STAT group (3 mice). […]

Structures are written as SMILES. Entries after “also recorded” stand apart in the source; their conditions may differ. Counter-ions that a name gives are not always drawn.

On to `CC1(C)S[C@@H]2[C@H](NC(=O)COc3ccccc3)C(=O)N2[C@H]1C(=O)[O-].[K+]` [STAT, penicillin VK], for which the “type 1 diabetes expression” value in experiment [1] (NOD mice, STAT-antibiotic-treated) was “no different from controls”. In addition, the “Akkermansia muciniphila (species level)” value in experiment [2] (STAT male cecal and ileal samples, vs controls (less than PAT)) is on record as “more”. Also, in experiment [2] (STAT-antibiotic-treated NOD mice vs controls), the “prevalence of Bifidobacterium sp.” value is “not different”. Further, the “fecal microbial community structure (PCoA, unweighted unifrac)” value in experiment [2] (males and females) is given as “essentially overlap”. In addition, the “bloom in Verrucomicrobia” value in experiment [2] (cecal and ileal samples from male STAT mice) is reported as “greater than in controls but less than in PAT”. In experiment [2] (females), the “abundance of all 3 named Bifidobacterium species” value is “increased abundance”. For the same molecule, the OTU richness result in experiment [2] (females, only at 3 weeks of age, vs controls) is on record as “significantly lower”; in experiment [2] (males, at 3 and 6 weeks of age, vs controls), “significantly lower”. In addition, the “islet inflammation (insulitis score 0-4)” value in experiment [3] (6-week old NOD females, vs controls) is reported as “significantly more”.
In the case of `CC[C@H]1OC(=O)C[C@@H](O)[C@H](C)[C@@H](O[C@@H]2O[C@H](C)[C@@H](O[C@H]3C[C@@](C)(O)[C@@H](O)[C@H](C)O3)[C@H](N(C)C)[C@H]2O)[C@@H](CC=O)C[C@@H](C)C(=O)/C=C/C(C)=C/[C@@H]1CO[C@@H]1O[C@H](C)[C@@H](O)[C@@H](OC)[C@H]1OC` [Tylosin, Tylosin tartrate], the “development of T1D (diabetes incidence)” value in experiment [1] (male NOD mice, onset = 2 consecutive weeks blood glucose >250 mg/dl and glucosuria, vs control, listed as PAT) is on record as “accelerated; also recorded: higher rate”. Besides, the “cecal and ileal microbial composition” value in experiment [2] (6-week old NOD mice, Adonis test) is reported as “significantly alters”. In addition, in experiment [2] (PAT samples after the first antibiotic pulse), the Bacteroides entry was “decrease”. The “Verrucomicrobia (phylum level)” value in experiment [2] (PAT samples after the first antibiotic pulse, vs control) is “large bloom”. In experiment [2] (PAT samples starting at 3 weeks), the “Akkermansia muciniphila (species level)” value is listed as “large bloom”. For the same molecule, in experiment [2] (all sample times, all sample types, males and females, vs controls), the “Phylogenic diversity (PD)” value was “lower”. For the same molecule, the OTU richness result in experiment [2] (all sample times, all sample types, males and females, vs controls, FDR p<0.05) is given as “lower”. Besides, the “fecal microbial community structure (PCoA, unweighted unifrac)” value in experiment [2] (males and females) is reported as “cluster distinctly from controls”. Moreover, in experiment [2] (females and males), the “relative abundance of Bifidobacterium genus” value was “decreases”; the “relative abundance of three detectable Bifidobacterium species (B. animalis, B. adolescentis, B. pseudolongum)” value is “decreases”; the “relative abundance of unnamed Bifidobacterium species” value is “decreases”. Besides, in experiment [2] (male NOD mice, vs controls), the “intragroup beta diversity (unweighted Unifrac distance)” value was “lower”. Further, in experiment [3] (6-week old NOD males, vs control or STAT males), the “insulitis (score 0-4)” value is listed as “significantly more”.
